Results taken from patent US20260250318A1, “COMPOSITIONS AND METHODS FOR CROSSING THE BLOOD BRAIN BARRIER” (VOYAGER THERAPEUTICS, INC., priority 2022, published 2026).

How the values were obtained:
brain = test: Matured TTM-001 and TTM-002 variants, NGS enrichment in mouse brain; assay type: in vivo, mice; conditions: relative to AAV9 control
[1] = tested on: brains, heart, liver, muscle, and DRG of the NHPs; test: Maturation of TTM-001 and TTM-002 capsids, NGS enrichment in NHP tissues; assay type: in vivo; conditions: relative to AAV9 control
Method in brief: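 Variants carry mutations within and flanking the loop IV peptide insert: positions 450–466 were triplet-randomized, while positions 449–466 received low-frequency point mutations. The combined pool went into two NHPs, and each peptide was scored by NGS enrichment ratio against AAV9.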

[2] = NGS fold-enrichment, brain of mice
[3] = NGS fold-enrichment, DRG of NHPs
[4] = NGS fold-enrichment, RNA, brain of NHPs
[5] = NGS fold-enrichment, heart of NHPs
[6] = NGS fold-enrichment, liver DNA of NHPs
[7] = NGS fold-enrichment, liver RNA of NHPs
[8] = NGS fold-enrichment, muscle of NHPs
[9] = NGS fold-enrichment of matured AAV capsid variants, NHP brain, RNA
[10] = NGS fold-enrichment, mouse brain
[11] = NGS fold-enrichment of RNA, NHP brain
[12] = NGS fold-enrichment, NHP liver DNA
[13] = NGS fold-enrichment, NHP liver RNA
[14] = NGS fold-enrichment, NHP muscle

Sequence	Fold Enrichment relative to AAV9, Brain (Mouse) (brain; [2]) [fold]	Fold Enrichment relative to AAV9, DRG (NHP) [1, 3] [fold]	Fold Enrichment relative to AAV9, Brain (NHP) [1, 4] [fold]	Fold Enrichment relative to AAV9, Heart (NHP) [1, 5] [fold]	Fold Enrichment relative to AAV9, Liver DNA (NHP) [1, 6] [fold]	Fold Enrichment relative to AAV9, Liver RNA (NHP) [1, 7] [fold]	Fold Enrichment relative to AAV9, Muscle (NHP) [1, 8] [fold]	Fold Enrichment relative to AAV9, Brain (Mouse) (brain; mouse brain) [fold]	Fold Enrichment relative to AAV9, Brain (NHP) [1, 9] [fold]	Fold Enrichment relative to AAV9, DRG (NHP) ([1]; NHP DRG) [fold]	Fold Enrichment relative to AAV9, Heart (NHP) ([1]; NHP heart) [fold]	Fold Enrichment relative to AAV9, Liver DNA (NHP) ([1]; NHP liver, DNA) [fold]	Fold Enrichment relative to AAV9, Liver RNA (NHP) ([1]; NHP liver, RNA) [fold]	Fold Enrichment relative to AAV9, Muscle (NHP) ([1]; NHP muscle) [fold]	other results
KTINGSGSPHSKAQERPT	57.506	0.000	63.460	0.011	0.173	0.810	0.000	–	–	–	–	–	–	–	–
KTINGSGSPHSKAQERST	–	–	–	–	–	–	–	87.656	58.021	0.000	0.011	0.409	0.829	0.005	–
KTINGSGSPHSKAQFMCT	–	–	–	–	–	–	–	81.959	55.916	0.000	0.000	0.448	0.078	0.000	–
KTINGSGSPHSKAQFPST	119.712	0.000	75.677	0.004	0.127	0.849	0.000	–	–	–	–	–	–	–	Fold Enrichment relative to AAV9, Brain (Mouse) (brain; [10]): 119.712 fold; Fold Enrichment relative to AAV9, Brain (NHP) [1, 11]: 75.677 fold; Fold Enrichment relative to AAV9, DRG (NHP) ([1]; NGS fold-enrichment, NHP DRG): 0.000 fold; Fold Enrichment relative to AAV9, Heart (NHP) ([1]; NGS fold-enrichment, NHP heart): 0.004 fold; Fold Enrichment relative to AAV9, Liver DNA (NHP) [1, 12]: 0.127 fold; Fold Enrichment relative to AAV9, Liver RNA (NHP) [1, 13]: 0.849 fold; Fold Enrichment relative to AAV9, Muscle (NHP) [1, 14]: 0.000 fold
KTINGSGSPHSKAQGAIT	–	–	–	–	–	–	–	95.696	57.627	0.000	0.000	0.161	0.594	0.000	–
KTINGSGSPHSKAQGHHT	–	–	–	–	–	–	–	71.050	56.559	0.000	0.000	0.117	0.632	0.000	–
KTINGSGSPHSKAQGILT	–	–	–	–	–	–	–	102.631	58.418	0.000	0.005	0.192	0.569	0.010	–
KTINGSGSPHSKAQGIRT	155.013	0.041	61.952	0.000	0.502	0.897	0.012	–	–	–	–	–	–	–	–
KTINGSGSPHSKAQGQQA	64.116	0.000	64.128	0.185	0.195	0.063	0.000	–	–	–	–	–	–	–	–
KTINGSGSPHSKAQGSLT	–	–	–	–	–	–	–	142.786	54.717	0.000	0.006	0.298	0.480	0.013	–
KTINGSGSPHSKAQHGLT	–	–	–	–	–	–	–	117.191	55.999	0.000	0.000	0.244	1.913	0.101	–
KTINGSGSPHSKAQHPST	101.103	0.000	62.255	0.044	0.301	1.345	0.000	–	–	–	–	–	–	–	–
KTINGSGSPHSKAQHRIT	127.000	0.105	76.849	0.499	0.214	1.424	0.170	–	–	–	–	–	–	–	Fold Enrichment relative to AAV9, Brain (Mouse) (brain; [10]): 127.000 fold; Fold Enrichment relative to AAV9, Brain (NHP) [1, 11]: 76.849 fold; Fold Enrichment relative to AAV9, DRG (NHP) ([1]; NGS fold-enrichment, NHP DRG): 0.105 fold; Fold Enrichment relative to AAV9, Heart (NHP) ([1]; NGS fold-enrichment, NHP heart): 0.499 fold; Fold Enrichment relative to AAV9, Liver DNA (NHP) [1, 12]: 0.214 fold; Fold Enrichment relative to AAV9, Liver RNA (NHP) [1, 13]: 1.424 fold; Fold Enrichment relative to AAV9, Muscle (NHP) [1, 14]: 0.170 fold
KTINGSGSPHSKAQIGHT	–	–	–	–	–	–	–	99.262	57.769	0.024	0.000	0.154	0.281	0.000	–
KTINGSGSPHSKAQIGMT	–	–	–	–	–	–	–	134.585	59.013	0.081	106.528	0.248	1.003	0.000	–
KTINGSGSPHSKAQIPPT	87.661	0.000	61.258	0.000	0.115	0.758	0.000	–	–	–	–	–	–	–	–
